This is an account of results in the supplement of paper PMC6965134.

The nature of this series: TIMS collisional cross section (CCS, N2) of the lipid ion; higher = larger ion cross section. To be noted: ionization mode: negative, one isomer drawn. The procedure: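 Lipid extracts of human plasma (NIST SRM 1950), mouse liver or HeLa cells were separated by nanoflow C18 LC (30 min gradient) and analysed by TIMS-PASEF on a timsTOF Pro. Ion mobility was calibrated with the Agilent tuning mix (negative mode ions) and converted to collisional cross sections (Mason–Schamp, N2).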

± gives the standard deviation of the averaged measurements.
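Also: lipids from MTBE extraction, five replicate injections per sample, 100 ms TIMS ramp spanning 0.6–1.95 Vs/cm², lipid identity assigned from PASEF MS/MS spectra.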

Take `CCCCC/C=C\C[C@H](O)/C=C/C=C\C/C=C\CCCC(=O)O[C@H](COC(=O)CCCCCCCCCCCCCCCCC)COP(=O)(O)OCCN` [Oxidized PE 18:0@_20:4]: the “TIMS collisional cross section” value (sample type: Human plasma, ion (formula + adduct): [C43H78NO9P-H] 1-) was 298.2 Å² and the “TIMS collisional cross section” value (sample type: Mouse Liver, ion (formula + adduct): [C43H78NO9P-H] 1-) came to 281.9 Å².
With `CCCC/C=C/C=C/C=C/CCCCCCCC(=O)OC[C@H](COP(=O)([O-])OCC[N+](C)(C)C)OC(=O)CCCCCCC/C=C/C=C/C=C/CCCC` [PC 18:3_18:3], under “sample type: Mouse Liver, ion (formula + adduct): [C44H76NO8P+HCOO] 1-”, the “TIMS collisional cross section” value is given as 289.8 Å².
Regarding `CCCCCCCCCCCCCC(=O)O[C@H](COC(=O)CCCCCCCCCCC)COP(=O)([O-])OCC[N+](C)(C)C` [PC 12:0_14:0], under “sample type: Human plasma, ion (formula + adduct): [C34H68NO8P+HCOO] 1-”, the “TIMS collisional cross section” value stood at 270.8 Å².
As for `CCCCC/C=C\C/C=C\C/C=C\C/C=C\CCCC(=O)OC[C@H](COP(=O)(O)OC[C@H](N)C(=O)O)OC(=O)CCCCCCCCCCCCCCC` [PS 20:4_16:0], the “TIMS collisional cross section” value (sample type: Mouse Liver, ion (formula + adduct): [C42H74NO10P-H] 1-) is given as 280.1 Å².
Regarding `CCCCCCCCCCCCCCCCCC(=O)OC[C@@H](O)COP(=O)(O)OC[C@@H](O)CO` [LPG 18:0_0:0], for the setting “sample type: Human plasma, ion (formula + adduct): [C24H49O9P-H] 1-”, the “TIMS collisional cross section” value worked out at 224.9 Å².
Take `CCCCCC/C=C\CCCCCCCC(=O)OC[C@@H](O)COP(=O)(O)OCCN` [LPE 16:1_0:0]: the “TIMS collisional cross section” value by setting is: (sample type: Human plasma, ion (formula + adduct): [C21H42NO7P-H] 1-) 208.4 Å²; (sample type: Mouse Liver, ion (formula + adduct): [C21H42NO7P-H] 1-) 208.4 Å².
Regarding `CCCC/C=C\CCCCCCCC(=O)OC[C@H](COP(=O)([O-])OCC[N+](C)(C)C)OC(=O)CCCCCCCCCCCCCCC` [PC 14:1_16:0], the “TIMS collisional cross section” value (sample type: Mouse Liver, ion (formula + adduct): [C38H74NO8P+Cl] 1-) was 268.8 Å².
Turning to `CC/C=C\C/C=C\C/C=C\C/C=C\C/C=C\C/C=C\CCC(=O)O[C@H](COC(=O)CCC/C=C\C/C=C\C/C=C\C/C=C\CCCCC)COP(=O)(O)OCCN` [PE 20:4_22:6], the “TIMS collisional cross section” value (sample type: Mouse Liver, ion (formula + adduct): [C47H74NO8P-H] 1-) was 280.6 Å².
In the case of `CCCC/C=C\CCCCCCCC(=O)OC[C@H](COP(=O)([O-])OCC[N+](C)(C)C)OC(=O)CCCCCCC/C=C\CCCCCC` [PC 14:1_16:1@], under “sample type: Human plasma, ion (formula + adduct): [C38H72NO8P+HCOO] 1-”, the “TIMS collisional cross section” value amounted to 278.6 Å².
In the case of `CCCCCCC/C=C\CCCCCCCC(=O)O[C@H](COC(=O)CCCCCCCCCCCCC)COP(=O)([O-])OCC[N+](C)(C)C` [PC 14:0@_17:1], the “TIMS collisional cross section” value (sample type: Mouse Liver, ion (formula + adduct): [C39H76NO8P-CH3] 1-) was determined as 265 Å².
`CCCCC/C=C\C/C=C\CCCCCCCC(=O)OC[C@@H](O)COP(=O)(O)OCCN` [LPE 18:2_0:0]: the “TIMS collisional cross section” value runs as follows: (sample type: Human plasma, ion (formula + adduct): [C23H44NO7P-H] 1-) 212.88 ± 0.79 Å²; (sample type: Mouse Liver, ion (formula + adduct): [C23H44NO7P-H] 1-) 212.2 Å².
For the compound `CCCCCCCCCCCCCCCCCC(=O)O[C@H](COC(=O)CCC)COP(=O)([O-])OCC[N+](C)(C)C` [PC 4:0@_18:0], the “TIMS collisional cross section” value (sample type: Mouse Liver, ion (formula + adduct): [C30H60NO8P+HCOO] 1-) turned out to be 248.5 Å².
With `CCCCCCCCCCCCCCCCCCCC(=O)OC[C@@H](O)COP(=O)(O)OCCN` [LPE 20:0_0:0], the “TIMS collisional cross section” value is, setting by setting: (sample type: Human plasma, ion (formula + adduct): [C25H52NO7P-H] 1-) 224.9 Å²; (sample type: Mouse Liver, ion (formula + adduct): [C25H52NO7P-CH3] 1-) 220.9 Å².
Regarding `CCCCCCCCCCCCCCCCC(=O)O[C@H](COC(=O)CCCCCCCCCCCCCCC)COP(=O)([O-])OCC[N+](C)(C)C` [PC 16:0_17:0], the “TIMS collisional cross section” value (sample type: Human plasma, ion (formula + adduct): [C41H82NO8P+HCOO] 1-) is listed as 290.3 Å².
With `CC/C=C\C/C=C\C/C=C\C/C=C\C/C=C\C/C=C\CCC(=O)O[C@H](CO/C=C\CCCCCCCCCCCCCC)COP(=O)([O-])OCC[N+](C)(C)C` [PC P- 16:0@_22:6], the “TIMS collisional cross section” value came out at 296.7 Å² (sample type: Human plasma, ion (formula + adduct): [C46H80NO7P+HCOO] 1-); 280.2 Å² (sample type: Human plasma, ion (formula + adduct): [C46H80NO7P-CH3] 1-); 279.6 Å² (sample type: Mouse Liver, ion (formula + adduct): [C46H80NO7P-CH3] 1-).
With `CCCCC/C=C\C/C=C\CCCCCCCC(=O)OC[C@H](COP(=O)(O)OCCN)OC(=O)CCCCCCC/C=C\CCCCCC` [PE 18:2_16:1@], the “TIMS collisional cross section” value (sample type: Mouse Liver, ion (formula + adduct): [C39H72NO8P-H] 1-) is recorded as 264 Å².
As for `CCCCCCCC/C=C\CCCCCCCC(=O)OC[C@H](COP(=O)([O-])OCC[N+](C)(C)C)OC(=O)CCCCCCCCCCCCCCCCCC` [PC 18:1_19:0], the “TIMS collisional cross section” value (sample type: Mouse Liver, ion (formula + adduct): [C45H88NO8P+HCOO] 1-) is 299.5 Å².
As for `CCCCC/C=C\C/C=C\C/C=C\C/C=C\CCCC(=O)O[C@H](COC(=O)CCCCCCCCCCCCCCCCC)COP(=O)(O)OC1C(O)C(O)C(O)[C@@H](O)C1O` (stereo partly specified) [PI 18:0_20:4@], the “TIMS collisional cross section” value (sample type: Human plasma, ion (formula + adduct): [C47H83O13P-H] 1-) worked out at 298.1 Å².
`CC/C=C\C/C=C\C/C=C\C/C=C\C/C=C\C/C=C\CCC(=O)OC[C@H](COP(=O)(O)OCCN)OC(=O)CCC/C=C\C/C=C\C/C=C\C/C=C\C/C=C\CC` [PE 22:6@_20:5]: the “TIMS collisional cross section” value (sample type: Mouse Liver, ion (formula + adduct): [C47H72NO8P-H] 1-) is on record as 279.4 Å².
With `CC/C=C\C/C=C\C/C=C\C/C=C\C/C=C\CCCC(=O)O[C@H](COC(=O)CCCCCCC/C=C\C/C=C\CCCCC)COP(=O)([O-])OCC[N+](C)(C)C` [PC 18:2_20:5@], the “TIMS collisional cross section” value (sample type: Mouse Liver, ion (formula + adduct): [C46H78NO8P-CH3] 1-) is 276.6 Å².
For `CCCCCCCC/C=C\CCCCCCCC(=O)OC[C@@H](O)COP(=O)(O)OCCN` [LPE 18:1_0:0], the “TIMS collisional cross section” value by setting is: (sample type: Human plasma, ion (formula + adduct): [C23H46NO7P-H] 1-) 215.5 ± 1 Å²; (sample type: Mouse Liver, ion (formula + adduct): [C23H46NO7P-H] 1-) 215.2 ± 1 Å².
In the case of `CCCCC/C=C\C/C=C\C/C=C\C/C=C\CCCC(=O)O[C@H](COC(=O)CCCCCCC/C=C\CCCCCCCC)COP(=O)([O-])OCC[N+](C)(C)C` [PC 18:1_20:4], the “TIMS collisional cross section” value (sample type: Human plasma, ion (formula + adduct): [C46H82NO8P+HCOO] 1-) came to 298.3 Å² and the “TIMS collisional cross section” value (sample type: Mouse Liver, ion (formula + adduct): [C46H82NO8P+HCOO] 1-) was found to be 297.7 Å².
Turning to `CCCCCCCCCCCCCCCC(=O)OC[C@H](COP(=O)([O-])OCC[N+](C)(C)C)OC(=O)CCCCCCCC=O` [Oxidized PC 16:0_9:0@], the “TIMS collisional cross section” value came to 267.18 ± 0.29 Å² (sample type: Human plasma, ion (formula + adduct): [C33H64NO9P+HCOO] 1-); 253.8 Å² (sample type: Human plasma, ion (formula + adduct): [C33H64NO9P-CH3] 1-); 267.1 ± 0.42 Å² (sample type: Mouse Liver, ion (formula + adduct): [C33H64NO9P+HCOO] 1-).
On to `CCCCC/C=C\C[C@H](O)/C=C/C=C\C/C=C\CCCC(=O)O[C@H](COC(=O)CCCCCCCCCCCCCCC)COP(=O)([O-])OCC[N+](C)(C)C` [Oxidized PC 16:0_20:4], for which the “TIMS collisional cross section” value runs as follows: (sample type: Human plasma, ion (formula + adduct): [C44H80NO9P+HCOO] 1-) 296.77 ± 1.3 Å²; (sample type: Mouse Liver, ion (formula + adduct): [C44H80NO9P+HCOO] 1-) 295.67 ± 1.9 Å².
Consider `CCCCC/C=C\C/C=C\CCCCCCCC(=O)O[C@@H](CO)COC(=O)CCCCCCCCCCC` [DG 12:0@_18:2_0:0], for which, for the setting “sample type: Human plasma, ion (formula + adduct): [C33H60O5-H] 1-”, the “TIMS collisional cross section” value is 229.1 Å².
Regarding `CCCCC/C=C\C/C=C\C/C=C\CCCCCCC(=O)OC[C@H](COP(=O)(O)OC1[C@H](O)[C@H](O)C(O)[C@H](O)[C@H]1O)OC(=O)CCCCCCCCCCCCCCC` (stereo partly specified) [PI 20:3_16:0@], the “TIMS collisional cross section” value (sample type: Mouse Liver, ion (formula + adduct): [C45H81O13P-H] 1-) was determined as 293.1 Å².
Regarding `CC/C=C\C/C=C\C/C=C\C/C=C\C/C=C\C/C=C\CCC(=O)O[C@H](COC(=O)CCCCCCCCC/C=C\CCCCCCCC)COP(=O)(O)OCCN` [PE 20:1_22:6], where the note is “sample type: Mouse Liver, ion (formula + adduct): [C47H80NO8P-H] 1-”, the “TIMS collisional cross section” value was 285.8 Å².
As for `CCCC/C=C\CCCCCCCC(=O)OC[C@H](COP(=O)([O-])OCC[N+](C)(C)C)OC(=O)CCC/C=C\C/C=C\C/C=C\C/C=C\CCCCC` [PC 14:1@_20:4], for the setting “sample type: Human plasma, ion (formula + adduct): [C42H74NO8P-CH3] 1-”, the “TIMS collisional cross section” value is 268.8 Å².
`CCCCCCCC/C=C\CCCCCCCC(=O)O[C@H](COC(=O)CCCCCCCCCCCCCCCC)COP(=O)([O-])OCC[N+](C)(C)C` [PC 17:0@_18:1]: for the setting “sample type: Mouse Liver, ion (formula + adduct): [C43H84NO8P+HCOO] 1-”, the “TIMS collisional cross section” value came to 294.5 Å².
For `CCCCCCCCCCCCCCCCCCCC(=O)OC[C@@H](O)COP(=O)([O-])OCC[N+](C)(C)C` [LPC 20:0_0:0], the “TIMS collisional cross section” value (sample type: Human plasma, ion (formula + adduct): [C28H58NO7P+HCOO] 1-) stood at 253 Å².
